Results published in patent US5196437A, “Method for treating hepatic diseases and regenerating liver tissue using FK 506 and related compounds” (Fujisawa Pharmaceutical Company, Ltd., priority 1990, dated 1993).

System: midzonal hepatocytes
Assay: Eck fistula dogs, left portal vein infusion: electron microscopy of hepatocyte organelles
Type: in vivo, dog (beagle)
Conditions: for Organelle volume in average midzonal hepatocytes, Microbodies, Right / Organelle volume in average midzonal hepatocytes, Mitochondria, Right / Area of rough endoplasmic reticulum per average midzonal hepatocyte, Right / Area of smooth endoplasmic reticulum per average midzonal hepatocyte, Right / Organelle volume in average midzonal hepatocytes, Lipids, Right / Organelle volume in average midzonal hepatocytes, Lysosomes, Right: right lobe; for Organelle volume in average midzonal hepatocytes, Microbodies, Right / Organelle volume in average midzonal hepatocytes, Mitochondria, Right / Area of rough endoplasmic reticulum per average midzonal hepatocyte, Right / Area of smooth endoplasmic reticulum per average midzonal hepatocyte, Right / Organelle volume in average midzonal hepatocytes, Lysosomes, Left / Organelle volume in average midzonal hepatocytes, Lipids, Left / Organelle volume in average midzonal hepatocytes, Microbodies, Left / Organelle volume in average midzonal hepatocytes, Mitochondria, Left / Area of rough endoplasmic reticulum per average midzonal hepatocyte, Left / Area of smooth endoplasmic reticulum per average midzonal hepatocyte, Left / Organelle volume in average midzonal hepatocytes, Lipids, Right / Organelle volume in average midzonal hepatocytes, Lysosomes, Right: mean +/- SD; for Organelle volume in average midzonal hepatocytes, Lysosomes, Left / Organelle volume in average midzonal hepatocytes, Lipids, Left / Organelle volume in average midzonal hepatocytes, Microbodies, Left / Organelle volume in average midzonal hepatocytes, Mitochondria, Left / Area of rough endoplasmic reticulum per average midzonal hepatocyte, Left / Area of smooth endoplasmic reticulum per average midzonal hepatocyte, Left: left (infused) lobe
Protocol: Twenty adult female beagle dogs underwent Eck fistula (Starzl et al, Lancet, 1976, 1:821-25). After performing a large side to side portacaval shunt, the left and right portal vein branches were ligated. A small infusion catheter was tied into the left branch and led through the abdominal wall and subcutaneously to a battery charged infusion pump that was incorporated into a non-restraining body cast. A constant infusion was started of the control or test fluids at the volume of 20 to 30 ml/day. Oral fluids and diet were allowed ad lib. Four days later, the animals were administered 0.2 mCi/kg (CH3 -^3 H)-thymidine with specific activity of 80-90 Ci/MMol (New England Nuclear, Boston). Two hours later, the dogs were anesthetized and killed.
For studies of the organelles, small cubes of each hepatic sample were taken for electron microscopy. The tissue was post-fixed in glutaraldehyde followed by osmic acid. After embedding in Polarbed. 812 resin, ultrathin sections were cut, stained with lead citrate and examined in a Philip's 300 electron microscope. Measurements of the organelles were made on electron micrographs by Loud's method (Loud, J Cell Biol, 1968, 37:27-46).
Results are expressed as mean±standard deviation (SD). The Student's t-test was employed in individual experimental groups to compare differences between right and left lobes or between groups. A p value less than 0.05 was considered to be significant.

C=CCC1C=C(C)CC(C)CC(OC)C2OC(O)(C(=O)C(=O)N3CCCCC3C(=O)OC(C(C)=CC3CCC(O)C(OC)C3)C(C)C(O)CC1=O)C(C)CC2OC (centres unmarked) [FK 506]
Organelle volume in average midzonal hepatocytes, Microbodies, Right (0.01 mg/kg/day): 173.8 +/- 39.6 uM^3
Organelle volume in average midzonal hepatocytes, Mitochondria, Right (0.01 mg/kg/day): 1429.5 +/- 331.2 uM^3
Area of rough endoplasmic reticulum per average midzonal hepatocyte, Right (0.01 mg/kg/day, p vs vehicle 0.0019): 18697 +/- 1010 uM^2
Area of smooth endoplasmic reticulum per average midzonal hepatocyte, Right (0.01 mg/kg/day, p vs vehicle 0.1092): 23337 +/- 902 uM^2
Organelle volume in average midzonal hepatocytes, Lysosomes, Left (0.1 mg/kg/day, left vs right p 0.0000): 59.6 +/- 15.6 uM^3
Organelle volume in average midzonal hepatocytes, Lipids, Left (0.1 mg/kg/day, left vs right p 0.0011): 22.8 +/- 6.7 uM^3
Organelle volume in average midzonal hepatocytes, Microbodies, Left (0.1 mg/kg/day, left vs right p 0.0025): 86.3 +/- 11.5 uM^3
Organelle volume in average midzonal hepatocytes, Mitochondria, Left (0.1 mg/kg/day, left vs right p 0.2529): 1288.5 +/- 236.2 uM^3
Area of rough endoplasmic reticulum per average midzonal hepatocyte, Left (0.1 mg/kg/day, p vs vehicle 0.0001, left vs right 0.0001): 29889 +/- 1117 uM^2
Area of smooth endoplasmic reticulum per average midzonal hepatocyte, Left (0.1 mg/kg/day, p vs vehicle 0.0703, left vs right 0.0018): 18688 +/- 498 uM^2
Organelle volume in average midzonal hepatocytes, Lipids, Right (0.1 mg/kg/day): 83.8 +/- 19.7 uM^3
Organelle volume in average midzonal hepatocytes, Lysosomes, Right (0.1 mg/kg/day): 187.6 +/- 14.8 uM^3
Organelle volume in average midzonal hepatocytes, Microbodies, Right (0.1 mg/kg/day): 172.5 +/- 34.2 uM^3
Organelle volume in average midzonal hepatocytes, Mitochondria, Right (0.1 mg/kg/day): 1439.3 +/- 115.4 uM^3
Area of rough endoplasmic reticulum per average midzonal hepatocyte, Right (0.1 mg/kg/day, p vs vehicle 0.0007): 20325 +/- 975 uM^2
Area of smooth endoplasmic reticulum per average midzonal hepatocyte, Right (0.1 mg/kg/day, p vs vehicle 0.0725): 22747 +/- 1305 uM^2
preservation of the RER in the right lobes (1 mg/kg/day, compared to vehicle controls): better preservation of the RER
lipid accumulation in right lobes (1 mg/kg/day, compared to vehicle controls, p<0.001): reduced lipid accumulation
Organelle volume in average midzonal hepatocytes, Lysosomes, Left (1.0 mg/kg/day, left vs right p 0.0002): 48.8 +/- 10.9 uM^3
Organelle volume in average midzonal hepatocytes, Lipids, Left (1.0 mg/kg/day, left vs right p 0.0044): 15.6 +/- 2.8 uM^3
Organelle volume in average midzonal hepatocytes, Microbodies, Left (1.0 mg/kg/day, left vs right p 0.1111): 94.2 +/- 10.4 uM^3
Organelle volume in average midzonal hepatocytes, Mitochondria, Left (1.0 mg/kg/day, left vs right p 0.1996): 1284.8 +/- 178.9 uM^3
Area of rough endoplasmic reticulum per average midzonal hepatocyte, Left (1.0 mg/kg/day, p vs vehicle 0.0000, left vs right 0.0002): 32091 +/- 1225 uM^2
Area of smooth endoplasmic reticulum per average midzonal hepatocyte, Left (1.0 mg/kg/day, p vs vehicle 0.0574, left vs right 0.0024): 17876 +/- 642 uM^2
lysosomes in right lobar hepatocytes (1 mg/kg/day, p<0.05): reduced
microbodies in right lobar hepatocytes (1 mg/kg/day, p=0.07): reduced
Organelle volume in average midzonal hepatocytes, Lipids, Right (1.0 mg/kg/day): 47.8 +/- 11.3 uM^3
Organelle volume in average midzonal hepatocytes, Lysosomes, Right (1.0 mg/kg/day): 160.0 +/- 23.8 uM^3
Organelle volume in average midzonal hepatocytes, Microbodies, Right (1.0 mg/kg/day): 136.6 +/- 41.3 uM^3
Organelle volume in average midzonal hepatocytes, Mitochondria, Right (1.0 mg/kg/day): 1440.6 +/- 318.7 uM^3
Area of rough endoplasmic reticulum per average midzonal hepatocyte, Right (1.0 mg/kg/day, p vs vehicle 0.0003): 20839 +/- 1612 uM^2
Area of smooth endoplasmic reticulum per average midzonal hepatocyte, Right (1.0 mg/kg/day, p vs vehicle 0.0858): 23154 +/- 193 uM^2
mitochondria (FK 506-infused lobes): neither enlarged (Table V) nor abnormal
number of microbodies, lysosomes and small lipid containing vacuoles (FK 506-infused lobes): near normal levels
amount of rough endoplasmic reticulum (infused lobes): restored relative to controls
dilatation and disruption of the cisternae (infused lobes): minimal
ultrastructure of hepatocytes exposed to infused FK 506 (left lobes, even at the smallest doses): almost normal even at the smallest doses
changes in the hepatocytes in the right lobes (low doses of FK 506, compared with controls): did not differ greatly from those seen in the controls
